In patent US12459922B2 (Gilead Sciences, Inc., priority 2022, dated 2025):
pEC50: −log10 of the molar value.

tested on: endogenous cellular STAT1 (phosphorylated at Tyr701) in NCI-H1373 cells; experiment: Phospho-STAT1 (Tyr701) LANCE Ultra TR-FRET Detection Assay; type: cell-based; conditions: Homo sapiens, NCI-H1373, 48 h, phospho-STAT1 (Tyr701) induction, read-out: NH1373 pSTAT1 EC50

Compound	pEC50
Nc1nc(-c2cc3ncn(C[C@@H]4CCC[C@H](Nc5cn[nH]c(=O)c5C(F)(F)F)C4)c(=O)c3cc2F)ncc1OC(F)F [Example 265, 7-(4-amino-5-(difluoromethoxy)pyrimidin-2-yl)-6-fluoro-3-(((1R,3S)-3-((6-oxo-5-(trifluoromethyl)-1,6-dihydropyridazin-4-yl)amino)cyclohexyl)methyl)quinazolin-4(3H)-one]	7.28
CC(C)(O)c1cnc(-c2cc3ccn(C[C@@H]4CCC[C@H](Nc5cn[nH]c(=O)c5C(F)(F)F)C4)c(=O)c3cc2F)cn1 [Example 267, 7-fluoro-6-(5-(2-hydroxypropan-2-yl)pyrazin-2-yl)-2-(((1R,3S)-3-((6-oxo-5-(trifluoromethyl)-1,6-dihydropyridazin-4-yl)amino)cyclohexyl)methyl)isoquinolin-1(2H)-one]	7.10
Nc1nc(-c2cc3ccn(C[C@@H]4CCC[C@H](Nc5cn[nH]c(=O)c5C(F)(F)F)C4)c(=O)c3cc2F)ccc1C(F)F [Example 269, 6-(6-amino-5-(difluoromethyl)pyridin-2-yl)-7-fluoro-2-(((1R,3S)-3-((6-oxo-5-(trifluoromethyl)-1,6-dihydropyridazin-4-yl)amino)cyclohexyl)methyl)isoquinolin-1(2H)-one]	7.27
O=c1[nH]ncc(N[C@H]2CCC[C@@H](Cn3ccc4cc(-c5cnc(C6CC6)cn5)c(F)cc4c3=O)C2)c1C(F)(F)F [Example 270, 6-(5-cyclopropylpyrazin-2-yl)-7-fluoro-2-(((1R,3S)-3-((6-oxo-5-(trifluoromethyl)-1,6-dihydropyridazin-4-yl)amino)cyclohexyl)methyl)isoquinolin-1(2H)-one]	6.83
Nc1cc(-c2cc3ccn(C[C@@H]4CCC[C@H](Nc5cn[nH]c(=O)c5C(F)(F)F)C4)c(=O)c3cc2F)cnc1C(F)(F)F [Example 271, 6-(5-amino-6-(trifluoromethyl)pyridin-3-yl)-7-fluoro-2-(((1R,3S)-3-((6-oxo-5-(trifluoromethyl)-1,6-dihydropyridazin-4-yl)amino)cyclohexyl)methyl)isoquinolin-1(2H)-one]	6.67
O=c1[nH]ncc(N[C@H]2CCC[C@@H](Cn3ccc4cc(-c5nccc(C(F)(F)F)n5)c(F)cc4c3=O)C2)c1C(F)(F)F [Example 272, 7-fluoro-2-(((1R,3S)-3-((6-oxo-5-(trifluoromethyl)-1,6-dihydropyridazin-4-yl)amino)cyclohexyl)methyl)-6-(4-(trifluoromethyl)pyrimidin-2-yl)isoquinolin-1(2H)-one]	5.00
O=c1[nH]ncc(N[C@H]2CCC[C@@H](Cn3ccc4cc(-c5ccc(C(F)(F)CO)cn5)c(F)cc4c3=O)C2)c1C(F)(F)F [Example 279, 6-(5-(1,1-difluoro-2-hydroxyethyl)pyridin-2-yl)-7-fluoro-2-(((1R,3S)-3-((6-oxo-5-(trifluoromethyl)-1,6-dihydropyridazin-4-yl)amino)cyclohexyl)methyl)isoquinolin-1(2H)-one]	7.81
O=c1[nH]ncc(N[C@H]2CCC[C@@H](Cn3ccc4cc(-c5ccc(Cl)cn5)c(F)cc4c3=O)C2)c1C(F)(F)F [Example 280, 6-(5-chloropyridin-2-yl)-7-fluoro-2-(((1R,3S)-3-((6-oxo-5-(trifluoromethyl)-1,6-dihydropyridazin-4-yl)amino)cyclohexyl)methyl)isoquinolin-1(2H)-one]	7.46

Continued by rising pEC50, values first:

pEC50	Compound
5.00	O=c1[nH]ncc(N[C@H]2CCC[C@@H](Cn3ccc4nc(-c5ccc(C(F)(F)F)cn5)ccc4c3=O)C2)c1C(F)(F)F [Example 273, 6-(((1R,3S)-3-((6-oxo-5-(trifluoromethyl)-1,6-dihydropyridazin-4-yl)amino)cyclohexyl)methyl)-2-(5-(trifluoromethyl)pyridin-2-yl)-1,6-naphthyridin-5(6H)-one]
6.46	CCNc1cnc(-c2cc3ccn(C[C@@H]4CCC[C@H](Nc5cn[nH]c(=O)c5C(F)(F)F)C4)c(=O)c3cc2F)cn1 [Example 277, 6-(5-(ethylamino)pyrazin-2-yl)-7-fluoro-2-(((1R,3S)-3-((6-oxo-5-(trifluoromethyl)-1,6-dihydropyridazin-4-yl)amino)cyclohexyl)methyl)isoquinolin-1(2H)-one]
6.70	NC1(c2cnc(-c3cc4ccn(C[C@@H]5CCC[C@H](Nc6cn[nH]c(=O)c6C(F)(F)F)C5)c(=O)c4cc3F)cn2)COC1 [Example 275, 6-(5-(3-aminooxetan-3-yl)pyrazin-2-yl)-7-fluoro-2-(((1R,3S)-3-((6-oxo-5-(trifluoromethyl)-1,6-dihydropyridazin-4-yl)amino)cyclohexyl)methyl)isoquinolin-1(2H)-one]
6.73	O=c1[nH]ncc(N[C@H]2CCC[C@@H](Cn3ccc4cc(-c5cnc(C6COC6)cn5)c(F)cc4c3=O)C2)c1C(F)(F)F [Example 266, 7-fluoro-6-(5-(oxetan-3-yl)pyrazin-2-yl)-2-(((1R,3S)-3-((6-oxo-5-(trifluoromethyl)-1,6-dihydropyridazin-4-yl)amino)cyclohexyl)methyl)isoquinolin-1(2H)-one]
7.11	CNc1cnc(-c2cc3ccn(C[C@@H]4CCC[C@H](Nc5cn[nH]c(=O)c5C(F)(F)F)C4)c(=O)c3cc2F)cn1 [Example 274, 7-fluoro-6-(5-(methylamino)pyrazin-2-yl)-2-(((1R,3S)-3-((6-oxo-5-(trifluoromethyl)-1,6-dihydropyridazin-4-yl)amino)cyclohexyl)methyl)isoquinolin-1(2H)-one]
7.12	Nc1nc(-c2cc3ccn(C[C@@H]4CCC[C@H](Nc5cn[nH]c(=O)c5C(F)(F)F)C4)c(=O)c3cc2F)cnc1C(F)F [Example 264, 6-(6-amino-5-(difluoromethyl)pyrazin-2-yl)-7-fluoro-2-(((1R,3S)-3-((6-oxo-5-(trifluoromethyl)-1,6-dihydropyridazin-4-yl)amino)cyclohexyl)methyl)isoquinolin-1(2H)-one]
7.89	O=c1[nH]ncc(N[C@H]2CCC[C@@H](Cn3ccc4cc(-c5ccc(C(F)(F)F)cn5)c(F)cc4c3=O)C2)c1C(F)(F)F [Example 268, 7-fluoro-2-(((1R,3S)-3-((6-oxo-5-(trifluoromethyl)-1,6-dihydropyridazin-4-yl)amino)cyclohexyl)methyl)-6-(5-(trifluoromethyl)pyridin-2-yl)isoquinolin-1(2H)-one]
7.99	Cc1nc(-c2cc3ccn(C[C@@H]4CCC[C@H](Nc5cn[nH]c(=O)c5C(F)(F)F)C4)c(=O)c3cc2F)nc(N)c1Cl [Example 276, 6-(4-amino-5-chloro-6-methylpyrimidin-2-yl)-7-fluoro-2-(((1R,3S)-3-((6-oxo-5-(trifluoromethyl)-1,6-dihydropyridazin-4-yl)amino)cyclohexyl)methyl)isoquinolin-1(2H)-one]
8.36	COc1cnc(-c2cc3ccn(C[C@@H]4CCC[C@H](Nc5cn[nH]c(=O)c5C(F)(F)F)C4)c(=O)c3c(F)c2F)nc1N [Example 278, 6-(4-amino-5-methoxypyrimidin-2-yl)-7,8-difluoro-2-(((1R,3S)-3-((6-oxo-5-(trifluoromethyl)-1,6-dihydropyridazin-4-yl)amino)cyclohexyl)methyl)isoquinolin-1(2H)-one]
